Laboratory results reported in the supplement of paper PMC4862054.

Legend:
Test in all cases: normalised viability (% of control), CellTiter-Blue; higher = more viable cells (about 100 = DMSO control)
Details in all cases: incubation time: 72 h
[1] = system: DU-4475
In short: (§1)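 Breast cancer cell lines in 20 µl suspension were seeded onto 384-well plates pre-loaded with compound dissolved in 5 µl medium, then incubated 72 h. CellTiter-Blue reagent (2.5 µl) was added for 2 h at 37 °C and fluorescence read at 560/590 nm. Each plate was normalised to vehicle (100) and a positive kill control (0), with Z'-factor quality control. The value is normalised viability at one listed concentration of the series.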

[2] = system: BT-474
In short: as §1

[3] = system: MFM-223
In short: as §1

[4] = system: CAL-51
In short: as §1

[5] = system: HDQ-P1
In short: as §1

[6] = system: HCC1937
In short: as §1

[7] = system: MDA-MB-453
In short: as §1

[8] = system: MDA-MB-468
In short: as §1

[9] = system: Hs578T
In short: as §1

[10] = system: SK-BR-3
In short: as §1

[11] = system: CAL-120
In short: as §1

[12] = system: CAL-148
In short: as §1

[13] = system: DU-4475; remark: listed apart in the source
Protocol: (§2)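 DSRT, CellTiter-Blue viability, 72 h incubation. Signal is normalised to DMSO and benzethonium chloride controls. Value is the normalised response at dose 3.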

[14] = system: HCC1143
Protocol: as §2

[15] = system: BT-474; remark: listed apart in the source
Protocol: as §2

[16] = system: BT-549
Protocol: as §2

[17] = system: MDA-MB-231
Protocol: as §2

[18] = system: HCC1599
Protocol: as §2

[19] = system: MFM-223; remark: listed apart in the source
Protocol: as §2

[20] = system: CAL-51; remark: listed apart in the source
Protocol: as §2

[21] = system: MDA-MB-436
Protocol: as §2

[22] = system: HDQ-P1; remark: listed apart in the source
Protocol: as §2

[23] = system: HCC1937; remark: listed apart in the source
Protocol: as §2

[24] = system: MDA-MB-453; remark: listed apart in the source
Protocol: as §2

[25] = system: MDA-MB-468; remark: listed apart in the source
Protocol: as §2

[26] = system: Hs578T; remark: listed apart in the source
Protocol: as §2

[27] = system: SK-BR-3; remark: listed apart in the source
Protocol: as §2

[28] = system: CAL-85-1
Protocol: as §2

[29] = system: CAL-120; remark: listed apart in the source
Protocol: as §2

[30] = system: CAL-148; remark: listed apart in the source
Protocol: as §2

Cc1ccc(C(=O)Nc2ccc(CN3CCN(C)CC3)c(C(F)(F)F)c2)cc1C#Cc1cnc2cccnn12 [Ponatinib]
Details | normalised viability [%]
[1], 0.3 nM | 91.6
[1], 3 nM | 91.7
[1], 10 nM | 84.5
[2], 1 nM | 102
[2], 100 nM | 110
[2], 1000 nM | 91.2
[3], 1 nM | 100
[3], 1000 nM | 35.7
[4], 0.3 nM | 95.2
[4], 3 nM | 97.7
[4], 10 nM | 89.5
[5], 0.3 nM | 102
[5], 3 nM | 126
[5], 10 nM | 115
[6], 1 nM | 78.3
[6], 100 nM | 115
[7], 0.3 nM | 102
[7], 3 nM | 101
[7], 10 nM | 87.3
[8], 1 nM | 98.2
[8], 1000 nM | 78.7
[9], 1 nM | 105
[9], 100 nM | 110
[9], 1000 nM | 73.9
[10], 1 nM | 104
[10], 100 nM | 103
[10], 1000 nM | 71.3
[11], 1 nM | 95.3
[11], 100 nM | 85.4
[11], 1000 nM | 13.8
[12], 0.3 nM | 96.8
[12], 3 nM | 105
[12], 10 nM | 110
[13], 1 nM | 105
[14], 10 nM | 100
[15], 10 nM | 103
[16], 10 nM | 107
[17], 10 nM | 101
[18], 10 nM | 114
[19], 10 nM | 65.5
[20], 1 nM | 96.6
[21], 10 nM | 101
[22], 1 nM | 117
[23], 10 nM | 91.6
[24], 1 nM | 110
[25], 10 nM | 110
[26], 10 nM | 99.6
[27], 10 nM | 78
[28], 1 nM | 95.9
[29], 10 nM | 105
[30], 1 nM | 103

N[C@@H](CSC(c1ccccc1)(c1ccccc1)c1ccccc1)C(=O)O [S-trityl-L-cysteine]
Details | normalised viability [%]
[1], 12 nM | 117
[1], 120 nM | 92.9
[1], 400 nM | 102
[2], 40 nM | 111
[2], 4000 nM | 94
[2], 40000 nM | 25.9
[3], 40 nM | 102
[3], 4000 nM | 100
[3], 40000 nM | 78.2
[4], 12 nM | 87
[4], 120 nM | 90.5
[4], 400 nM | 87
[5], 12 nM | 94.4
[5], 120 nM | 92.5
[5], 400 nM | 110
[6], 40 nM | 98.7
[6], 4000 nM | 24.8
[6], 40000 nM | 22.6
[7], 12 nM | 91.7
[7], 120 nM | 80.9
[7], 400 nM | 101
[8], 40 nM | 102
[8], 4000 nM | 34.5
[8], 40000 nM | 34.6
[9], 40 nM | 114
[9], 4000 nM | 36.6
[9], 40000 nM | 16.8
[10], 40 nM | 112
[10], 4000 nM | 18.3
[10], 40000 nM | 20.1
[11], 40 nM | 110
[11], 4000 nM | 42.4
[11], 40000 nM | 35.2
[12], 12 nM | 112
[12], 120 nM | 114
[12], 400 nM | 114
[13], 40 nM | 99.9
[14], 400 nM | 122
[15], 400 nM | 109
[16], 400 nM | 75.4
[17], 400 nM | 91.7
[18], 400 nM | 89.6
[19], 400 nM | 99.8
[20], 40 nM | 87.4
[21], 400 nM | 98.6
[22], 40 nM | 94.1
[23], 400 nM | 81.5
[24], 40 nM | 88.8
[25], 400 nM | 101
[26], 400 nM | 92.2
[27], 400 nM | 95.8
[28], 40 nM | 101
[29], 400 nM | 110
[30], 40 nM | 106
